According to publication PMC9541843, “N‐terminal alterations turn the gut hormone GLP‐2 into an antagonist with gradual loss of GLP‐2 receptor selectivity towards more GLP‐1 receptor interaction” (British Journal of Pharmacology, 2022):
Where two headings read alike, the source gives them in different places. Peptide text beside a SMILES is read from it. * marks the point of attachment. C16 diacid = O=C(O)CCCCCCCCCCCCCCC(=O)*

Experiments:
human GLP‐1R = human GLP‐1R (Homo sapiens, UniProt P43220); assay: cAMP accumulation, inhibition of GLP‐1‐mediated response (selectivity); details: for inhibition at 1 µM: COS-7, read-out: Inhibition of GLP‐1‐mediated cAMP response at the human GLP‐1R
Chain of human GLP‐1R (P43220 24-463): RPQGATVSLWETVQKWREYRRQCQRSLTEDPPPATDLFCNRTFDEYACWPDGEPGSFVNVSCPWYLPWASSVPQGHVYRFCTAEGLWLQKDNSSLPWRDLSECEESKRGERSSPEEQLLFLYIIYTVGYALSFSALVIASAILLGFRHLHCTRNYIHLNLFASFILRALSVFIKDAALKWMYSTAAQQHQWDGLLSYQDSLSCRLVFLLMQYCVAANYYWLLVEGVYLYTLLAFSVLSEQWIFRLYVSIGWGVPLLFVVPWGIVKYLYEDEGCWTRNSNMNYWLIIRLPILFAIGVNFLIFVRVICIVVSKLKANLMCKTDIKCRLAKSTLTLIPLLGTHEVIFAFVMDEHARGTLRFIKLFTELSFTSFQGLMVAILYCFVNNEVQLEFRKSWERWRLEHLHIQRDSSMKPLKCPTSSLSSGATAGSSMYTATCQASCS

human GLP‐2R [1] = target: T1, human GLP‐2R (Homo sapiens, UniProt O95838); assay: cAMP accumulation, inhibition of GLP‐2‐induced activation; details: for Inhibition of GLP‐2‐induced cAMP at the human GLP‐2R: at 1 μM peptide (highest tested concentration), COS‐7 cells
T1 sequence (O95838 1-553): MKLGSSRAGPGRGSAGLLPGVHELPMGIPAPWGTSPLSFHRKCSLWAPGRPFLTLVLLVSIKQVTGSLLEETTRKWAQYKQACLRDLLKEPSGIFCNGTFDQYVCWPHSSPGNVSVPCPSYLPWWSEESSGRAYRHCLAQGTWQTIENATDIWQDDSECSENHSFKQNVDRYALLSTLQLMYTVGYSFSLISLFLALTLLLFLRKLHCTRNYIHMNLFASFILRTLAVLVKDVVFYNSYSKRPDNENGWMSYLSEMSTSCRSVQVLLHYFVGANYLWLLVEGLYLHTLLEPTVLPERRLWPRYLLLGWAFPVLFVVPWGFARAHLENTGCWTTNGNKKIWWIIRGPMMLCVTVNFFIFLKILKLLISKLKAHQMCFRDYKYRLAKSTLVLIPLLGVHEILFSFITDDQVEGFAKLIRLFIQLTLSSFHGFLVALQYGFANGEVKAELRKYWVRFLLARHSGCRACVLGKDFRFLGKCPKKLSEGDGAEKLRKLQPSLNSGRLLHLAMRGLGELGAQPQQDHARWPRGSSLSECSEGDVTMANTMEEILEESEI

human GLP‐2R [2] = target: T1, human GLP‐2R; assay: cAMP accumulation, agonism (HitHunter cAMP assay); details: for Emax: COS-7, read-out: cAMP activation Emax ± SEM
human GLP‐2R [3] = target: T1, human GLP‐2R; assay: Schild plot analysis of cAMP activation curve of GLP‐2; type: cell-based; set-up: host or cells: COS-7 (transient, calcium phosphate); details: COS‐7 cells, n = 5 in duplicate, read-out: Ki from Schild plot (pA2) (converted)
Protocol: Statistical significance was accepted at P < 0.05.
We used a Schild plot approach, where we examined their ability to right‐shift the cAMP activation curve of native GLP‐2 (Figure 4a–d). For GLP‐2(2‐33), GLP‐(3‐33) and GLP‐2(4‐33), all having intrinsic activity, the Schild plot analysis was based on an equieffective DR (the concentrations at 60% of Emax). For GLP‐2(3‐33)[D3A], with no intrinsic activity, the Schild plot analysis was conducted based on the shift in the EC50 values for GLP‐2 with and without GLP‐2(3‐33)[D3A] as previously described (Sparre‐Ulrich et al., [2017]).

human GLP‐2R [4] = target: T1, human GLP‐2R; assay: cell-based; details: SEM
Protocol: After incubation, the cells were washed twice in 400 μl per well ice‐cold binding buffer and lysed using 500 μl per well of 200 mM NaOH with 1% SDS for 30 min. The samples were counted using the Wizard Gamma Counter (PerkinElmer, Waltham, MA).

With `CC[C@H](C)[C@H](NC(=O)[C@H](Cc1ccccc1)NC(=O)[C@H](CC(=O)O)NC(=O)[C@H](CCCNC(=N)N)NC(=O)[C@H](C)NC(=O)[C@H](C)NC(=O)[C@H](CC(C)C)NC(=O)[C@H](CC(N)=O)NC(=O)[C@H](CC(=O)O)NC(=O)[C@H](CC(C)C)NC(=O)[C@@H](NC(=O)[C@@H](NC(=O)[C@H](CC(N)=O)NC(=O)[C@H](CCSC)NC(=O)[C@H](CCC(=O)O)NC(=O)[C@H](CC(=O)O)NC(=O)[C@H](CO)NC(=O)[C@H](Cc1ccccc1)NC(=O)[C@H](CO)NC(=O)CNC(=O)[C@H](CC(=O)O)NC(=O)CCCCCCCCCCCCCCC(=O)O)[C@@H](C)O)[C@@H](C)CC)C(=O)N[C@@H](CC(N)=O)C(=O)N[C@@H](Cc1c[nH]c2ccccc12)C(=O)N[C@@H](CC(C)C)C(=O)N[C@H](C(=O)N[C@@H](CCC(N)=O)C(=O)N[C@H](C(=O)N[C@@H](CCCCN)C(=O)N[C@H](C(=O)N[C@H](C(=O)N[C@@H](CC(=O)O)C(=O)O)[C@@H](C)O)[C@@H](C)CC)[C@@H](C)O)[C@@H](C)CC` [GLP‐2(3‐33)(C16‐diacid/3)] ({C16 diacid}-DGSFSDEMNTILDNLAARDFINWLIQTKITD-OH) the IC50 (human GLP‐1R) was 50 nM, the inhibition at 1 µM (human GLP‐1R) was 91% and the IC50 (human GLP‐2R [1]) was 7.9 nM. The “Inhibition of GLP‐2‐induced cAMP at the human GLP‐2R” value (human GLP‐2R [1]) was 87% and the Emax (human GLP‐2R [2]) was 25%.
With `CC[C@H](C)[C@H](NC(=O)[C@H](Cc1ccccc1)NC(=O)[C@H](CC(=O)O)NC(=O)[C@H](CCCNC(=N)N)NC(=O)[C@H](C)NC(=O)[C@H](C)NC(=O)[C@H](CC(C)C)NC(=O)[C@H](CC(N)=O)NC(=O)[C@H](CC(=O)O)NC(=O)[C@H](CC(C)C)NC(=O)[C@@H](NC(=O)[C@@H](NC(=O)[C@H](CC(N)=O)NC(=O)[C@H](CCSC)NC(=O)[C@H](CCC(=O)O)NC(=O)[C@H](CC(=O)O)NC(=O)[C@H](CO)NC(=O)[C@H](Cc1ccccc1)NC(=O)[C@H](CO)NC(=O)CNC(=O)[C@H](C)N)[C@@H](C)O)[C@@H](C)CC)C(=O)N[C@@H](CC(N)=O)C(=O)N[C@@H](Cc1c[nH]c2ccccc12)C(=O)N[C@@H](CC(C)C)C(=O)N[C@H](C(=O)N[C@@H](CCC(N)=O)C(=O)N[C@H](C(=O)N[C@@H](CCCCN)C(=O)N[C@H](C(=O)N[C@H](C(=O)N[C@@H](CC(=O)O)C(=O)O)[C@@H](C)O)[C@@H](C)CC)[C@@H](C)O)[C@@H](C)CC` [GLP‐2(3‐33)[D3A]] (H-AGSFSDEMNTILDNLAARDFINWLIQTKITD-OH) the Ki (human GLP‐2R [3]) was 40 nM and the IC50 (human GLP‐2R [1]) was 162 nM.
In the case of `CC[C@H](C)[C@H](NC(=O)[C@H](Cc1ccccc1)NC(=O)[C@H](CC(=O)O)NC(=O)[C@H](CCCNC(=N)N)NC(=O)[C@H](C)NC(=O)[C@H](C)NC(=O)[C@H](CC(C)C)NC(=O)[C@H](CCCCNC(=O)CCCCCCCCCCCCCCC(=O)O)NC(=O)[C@H](CC(=O)O)NC(=O)[C@H](CC(C)C)NC(=O)[C@@H](NC(=O)[C@@H](NC(=O)[C@H](CC(N)=O)NC(=O)[C@H](CCSC)NC(=O)[C@H](CCC(=O)O)NC(=O)[C@H](CC(=O)O)NC(=O)[C@H](CO)NC(=O)[C@H](Cc1ccccc1)NC(=O)[C@H](CO)NC(=O)CNC(=O)[C@@H](N)CC(=O)O)[C@@H](C)O)[C@@H](C)CC)C(=O)N[C@@H](CC(N)=O)C(=O)N[C@@H](Cc1c[nH]c2ccccc12)C(=O)N[C@@H](CC(C)C)C(=O)N[C@H](C(=O)N[C@@H](CCC(N)=O)C(=O)N[C@H](C(=O)N[C@@H](CCCCN)C(=O)N[C@H](C(=O)N[C@H](C(=O)N[C@@H](CC(=O)O)C(=O)O)[C@@H](C)O)[C@@H](C)CC)[C@@H](C)O)[C@@H](C)CC` [GLP‐2(3‐33)[N16K](C16‐diacid/16)] (H-DGSFSDEMNTILDK(C16 diacid)LAARDFINWLIQTKITD-OH), the inhibition at 1 µM (human GLP‐1R) is reported as 72%.
Molecule `CC[C@H](C)[C@H](NC(=O)[C@H](Cc1ccccc1)NC(=O)[C@H](CC(=O)O)NC(=O)[C@H](CCCN=C(N)N)NC(=O)[C@H](C)NC(=O)[C@H](C)NC(=O)[C@H](CC(C)C)NC(=O)[C@H](CC(N)=O)NC(=O)[C@H](CC(=O)O)NC(=O)[C@H](CC(C)C)NC(=O)[C@@H](NC(=O)[C@@H](NC(=O)[C@H](CC(N)=O)NC(=O)[C@H](CCSC)NC(=O)[C@H](CCC(=O)O)NC(=O)[C@H](CC(=O)O)NC(=O)[C@H](CO)NC(=O)[C@H](Cc1ccccc1)NC(=O)[C@H](CO)NC(=O)CNC(=O)[C@@H](N)CC(=O)O)[C@@H](C)O)[C@@H](C)CC)C(=O)N[C@@H](CC(N)=O)C(=O)N[C@@H](Cc1c[nH]c2ccccc12)C(=O)N[C@@H](CC(C)C)C(=O)N[C@H](C(=O)N[C@@H](CCC(N)=O)C(=O)N[C@H](C(=O)N[C@@H](CCCCN)C(=O)N[C@H](C(=O)N[C@H](C(=O)N[C@@H](CC(=O)O)C(=O)O)[C@@H](C)O)[C@@H](C)CC)[C@@H](C)O)[C@@H](C)CC` [GLP‐2(3‐33)] (H-DGSFSDEMNTILDNLAARDFINWLIQTKITD-OH) has an IC50 (human GLP‐2R [4]) of 7.94 nM, a Ki (human GLP‐2R [3]) of 126 nM and an IC50 (human GLP‐2R [1]) of 204 nM. For the same molecule, the EC50 (human GLP‐2R [2]; SEM) was 25.1 nM.
`CC[C@H](C)[C@H](NC(=O)[C@H](Cc1ccccc1)NC(=O)[C@H](CC(=O)O)NC(=O)[C@H](CCCNC(=N)N)NC(=O)[C@H](C)NC(=O)[C@H](C)NC(=O)[C@H](CC(C)C)NC(=O)[C@H](CC(N)=O)NC(=O)[C@H](CC(=O)O)NC(=O)[C@H](CC(C)C)NC(=O)[C@@H](NC(=O)[C@@H](NC(=O)[C@H](CC(N)=O)NC(=O)[C@H](CCSC)NC(=O)[C@H](CCC(=O)O)NC(=O)[C@H](CC(=O)O)NC(=O)[C@H](CO)NC(=O)[C@H](Cc1ccccc1)NC(=O)[C@H](CO)NC(=O)CNC(=O)[C@@H](N)CC(=O)O)[C@@H](C)O)[C@@H](C)CC)C(=O)N[C@@H](CC(N)=O)C(=O)N[C@@H](Cc1c[nH]c2ccccc12)C(=O)N[C@@H](CC(C)C)C(=O)N[C@H](C(=O)N[C@@H](CCC(N)=O)C(=O)N[C@H](C(=O)N[C@@H](CCCCN)C(=O)N[C@H](C(=O)N[C@H](C(=O)N[C@@H](CC(=O)O)C(=O)O)[C@@H](C)O)[C@@H](C)CC)[C@@H](C)O)[C@@H](C)CC` [GLP‐2(3‐33)] (H-DGSFSDEMNTILDNLAARDFINWLIQTKITD-OH) showed an inhibition at 1 µM (human GLP‐1R) of 30 to 38% and an Emax (human GLP‐2R [2]; SEM) of 21 ± 2.2%.
Work on `CC[C@H](C)[C@H](NC(=O)[C@H](Cc1ccccc1)NC(=O)[C@H](CC(=O)O)NC(=O)[C@H](CCCNC(=N)N)NC(=O)[C@H](C)NC(=O)[C@H](C)NC(=O)[C@H](CC(C)C)NC(=O)[C@H](CC(N)=O)NC(=O)[C@H](CC(=O)O)NC(=O)[C@H](CC(C)C)NC(=O)[C@@H](NC(=O)[C@@H](NC(=O)[C@H](CC(N)=O)NC(=O)[C@H](CCSC)NC(=O)[C@H](CCC(=O)O)NC(=O)[C@H](CC(=O)O)NC(=O)[C@H](CO)NC(=O)[C@H](Cc1ccccc1)NC(=O)[C@H](CO)NC(=O)CN)[C@@H](C)O)[C@@H](C)CC)C(=O)N[C@@H](CC(N)=O)C(=O)N[C@@H](Cc1c[nH]c2ccccc12)C(=O)N[C@@H](CC(C)C)C(=O)N[C@H](C(=O)N[C@@H](CCC(N)=O)C(=O)N[C@H](C(=O)N[C@@H](CCCCN)C(=O)N[C@H](C(=O)N[C@H](C(=O)N[C@@H](CC(=O)O)C(=O)O)[C@@H](C)O)[C@@H](C)CC)[C@@H](C)O)[C@@H](C)CC` [GLP‐2(4‐33)] (H-GSFSDEMNTILDNLAARDFINWLIQTKITD-OH) yielded an IC50 (human GLP‐2R [4]) of 6.31 nM, a Ki (human GLP‐2R [3]) of 6.3 nM and an IC50 (human GLP‐2R [1]; SEM) of 79.4 nM. The EC50 (human GLP‐2R [2]) was 158 nM and the Emax (human GLP‐2R [2]; SEM) was 17 ± 2.6%.
`CC[C@H](C)[C@H](NC(=O)[C@H](Cc1ccccc1)NC(=O)[C@H](CC(=O)O)NC(=O)[C@H](CCCNC(=N)N)NC(=O)[C@H](C)NC(=O)[C@H](C)NC(=O)[C@H](CC(C)C)NC(=O)[C@H](CC(N)=O)NC(=O)[C@H](CC(=O)O)NC(=O)[C@H](CC(C)C)NC(=O)[C@@H](NC(=O)[C@@H](NC(=O)[C@H](CC(N)=O)NC(=O)[C@H](CCSC)NC(=O)[C@H](CCC(=O)O)NC(=O)[C@H](CC(=O)O)NC(=O)[C@H](CO)NC(=O)[C@H](Cc1ccccc1)NC(=O)[C@H](CO)NC(=O)CCCCCCCCCCCCCCC(=O)O)[C@@H](C)O)[C@@H](C)CC)C(=O)N[C@@H](CC(N)=O)C(=O)N[C@@H](Cc1c[nH]c2ccccc12)C(=O)N[C@@H](CC(C)C)C(=O)N[C@H](C(=O)N[C@@H](CCC(N)=O)C(=O)N[C@H](C(=O)N[C@@H](CCCCN)C(=O)N[C@H](C(=O)N[C@H](C(=O)N[C@@H](CC(=O)O)C(=O)O)[C@@H](C)O)[C@@H](C)CC)[C@@H](C)O)[C@@H](C)CC` [GLP‐2(5‐33)(C16‐diacid/5)] ({C16 diacid}-SFSDEMNTILDNLAARDFINWLIQTKITD-OH) gave an IC50 (human GLP‐1R) of 40 nM, an inhibition at 1 µM (human GLP‐1R) of 67% and an IC50 (human GLP‐2R [1]) of 12.3 nM. For the same molecule, the “Inhibition of GLP‐2‐induced cAMP at the human GLP‐2R” value (human GLP‐2R [1]) was 93%.
